Measured values published in US12653189B2, “Herbicidal compositions comprising glyphosate” (BASF SE, priority 2023, dated 2026).

Experiments:
Assay in all cases: Post-emergence application in field trials
Type in all cases: in vivo
[1] = test system: AMATU; conditions: growth stage 19, height 10-20 cm, A-1 50 g ai/ha, B-6 840 g ai/ha, 23 DAT, water volume 140 l/ha, 1% v/v MSO + 2.5% v/v AMS
Experimental: (§1) On field test sites, natural weed infestation or seeded weeds were treated post-emergence of the weeds.
(§2) In the field trials, the weedy plants were treated as indicated below.
(§3) Herbicide A-1 (342 g/I), glyphosate (480 g/I or 575 g/l) and optional herbicide C were, together with addition of 0.5% v/v MSO (methylated seed oil) as adjuvant (unless indicated otherwise), formulated in water as distribution medium as indicated and sprayed with commercial flat fan nozzles.
(§4) In the following experiments, the herbicidal activity for the individual herbicidal compositions (solo and mixture applications) was assessed at the indicated days after treatment (DAT). The assessments for the damage on undesired weeds caused by the composition was carried out using a scale from 0 to 100%, compared to the untreated control plants. Here, 0 means no damage and 100 means complete destruction of the plants.

[2] = test system: AMAPA (Amaranthus palmeri); conditions: Glyphosate (EPSPS) resistant AMAPA, height 5-23 cm; A-1 50 g ai/ha, B-6 840 g ai/ha; 21 DAT; water volume 140 l/ha; 1% v/v MSO + 2.5% v/v AMS
Experimental: (§5) In the examples below, using the method of S. R. Colby (1967) “Calculating synergistic and antagonistic responses of herbicide combinations”, Weeds 15, p. 22ff., the value E, which is expected if the activity of the individual active compounds is only additive, was calculated:
(§6) [formula] • where • X=percent activity using active herbicide A at an application rate a; • Y=percent activity using active glyphosate at an application rate b; • E=expected activity (in %) by A+B at application rates a+b.
(§7) For 3- and 4-component mixtures (examples 3-5) the synergistic response was calculated as described in: Ferry, Nancy; Stanley, Bruce H.; and Armel, Gregory (2005). “DESIGN AND ANALYSIS OF BIOLOGICAL ASSAYS OF MIXTURES,” Conference on Applied Statistics in Agriculture. https://doi.org/10.4148/2475-7772.1133. According to this publication, the Colby calculation can be generalized to a third mixing partner, Z, employing the following formula: […]
(§8) If the value found experimentally is higher than the value E calculated according to Colby, a synergistic effect is present.
as §1, §2, §3, §4

[3] = test system: ZEAMX (Zea mays (maize)); conditions: glyphosate-tolerant volunteer corn RB 9006 PRO 2 (ZEAMX), growth stage 18; A-1 25 g ai/ha, B-6 1080 g ai/ha; 21 DAT; water volume 200 l/ha; 0.5% v/v MSO
Experimental: as §5, §6, §7, §8, §1, §2, §3, §4

[4] = test system: IPOTR (Ipomoea triloba); conditions: B-6 1080 g ai/ha, 21 DAT, water volume 200 l/ha, 0.5% v/v MSO
Experimental: as §5, §6, §7, §8, §1, §2, §3, §4

[5] = test system: ECHCG (Echinocloa crus-galli); conditions: growth stage 23-30, height 15-20 cm, water volume 200 l/ha, 0.25% v/v MSO
Experimental: as §5, §6, §7, §8, §1, §2, §3, §4

[6] = test system: PANMA (Panicum maximum); conditions: A-1 25 g ai/ha, B-6 1080 g ai/ha, 21 DAT, water volume 100 l/ha, 0.5% v/v MSO
Experimental: as §5, §6, §7, §8, §1, §2, §3, §4

[7] = test system: COMBE (Commelina benghalensis); conditions: B-6 1080 g ai/ha, 21 DAT, water volume 200 l/ha, 0.5% v/v MSO
Experimental: as §5, §6, §7, §8, §1, §2, §3, §4

[8] = test system: ELEIN (Eleusine indica); conditions: growth stage 23-25, height 3-5 cm, A-1 25 g ai/ha, B-6 1080 g ai/ha, 20 DAT, water volume 200 l/ha, 0.5% v/v MSO
Experimental: as §5, §6, §7, §8, §1, §2, §3, §4

[9] = test system: BRADC (Brachiaria decumbens); conditions: A-1 50 g ai/ha, B-6 1080 g ai/ha, 21 DAT, water volume 100 l/ha, 0.5% v/v MSO
Experimental: as §5, §6, §7, §8, §1, §2, §3, §4

[10] = test system: AMARE (Amaranthus retroflexus)
Experimental: as §5, §6, §7, §8, §1, §2, §3, §4

[11] = test system: DIGIN = TRCIN (Digitaria insularis); conditions: height 20-30 cm, A-1 50 g ai/ha, B-6 1080 g ai/ha, 7 DAT, water volume 200 l/ha, 0.5% v/v MSO
Experimental: as §5, §6, §7, §8, §1, §2, §3, §4

[12] = test system: GLXMA (Glycine max (soybean)); conditions: glyphosate-tolerant volunteer soybean M 6210 IPRO (GLXMA), growth stage 18; A-1 25 g ai/ha, B-6 1080 g ai/ha; 21 DAT; water volume 200 l/ha; 0.5% v/v MSO
Experimental: as §5, §6, §7, §8, §1, §2, §3, §4

[13] = test system: SPCHI (Spermacoce hispida); conditions: height 25 cm, A-1 25 g ai/ha, B-6 1080 g ai/ha, 21 DAT, water volume 100 l/ha, 0.5% v/v MSO
Experimental: as §5, §6, §7, §8, §1, §2, §3, §4

[14] = test system: HORVW (Hordeum vulgare (barley)); conditions: HORVW volunteer crop, growth stage 23-29, height 20-25 cm; A-1 + C-4 12.5 + 12.5, B-6 840, C-1 12.5 g ai/ha; 7 DAT; water volume 200 l/ha; 0.25% v/v MSO
Experimental: as §5, §6, §7, §8, §1, §2, §3, §4

[15] = ECHCG, A-1 12.5, B-6 840, C-1 12.5 g ai/ha, 7 DAT
[16] = ECHCG, A-1 12.5, B-6 840, C-1 12.5 g ai/ha, 28 DAT
[17] = ECHCG, A-1 12.5, B-6 840, C-4 12.5 g ai/ha, 7 DAT
[18] = growth stage 19, height 10-20 cm, A-1 50 g ai/ha, B-6 840 g ai/ha, 23 DAT, water volume 140 l/ha, 1% v/v MSO + 2.5% v/v AMS
[19] = Table 5.1: ECHCG, A-1 + C-1 12.5 + 12.5, B-6 840, C-4 12.5 g ai/ha, 7 DAT
[20] = Table 5.2: ECHCG, A-1 + C-4 12.5 + 12.5, B-6 840, C-1 12.5 g ai/ha, 7 DAT
[21] = growth stage 32, height 12 cm, A-1 + B-6 12.5 + 840, C-1 12.5, C-4 12.5 g ai/ha, 42 DAT, water volume 200 l/ha, 0.25% v/v MSO

Row | SMILES | % Herbicidal activity [1] | % Herbicidal activity [2] | % Herbicidal activity [3] | % Herbicidal activity ([4]; A-1 25 g ai/ha) | % Herbicidal activity ([4]; A-1 50 g ai/ha) | % Herbicidal activity [5, 15] | % Herbicidal activity [5, 16] | % Herbicidal activity [5, 17] | % Herbicidal activity [6] | % Herbicidal activity ([7]; A-1 25 g ai/ha) | % Herbicidal activity ([7]; A-1 50 g ai/ha) | % Herbicidal activity [8] | % Herbicidal activity [9] | % Herbicidal activity [10, 18] | % Herbicidal activity [11] | % Herbicidal activity [12] | % Herbicidal activity [13] | % Herbicidal activity [5, 19] | % Herbicidal activity [5, 20] | % Herbicidal activity [14] | other results
1 | CCOC(=O)COc1ccccc1Oc1nc(-n2c(=O)cc(C(F)(F)F)n(C)c2=O)c(F)cc1Cl [A-1, ethyl 2-[2-[[3-chloro-5-fluoro-6-[3-methyl-2,6-dioxo-4-(trifluoromethyl)pyrimidin-1-yl]-2-pyridyl]oxy]phenoxy]acetate] | 73% | 74% | 53% | 82% | 88% | 30% | 20% | 30% | 73% | 60% | 82% | 82% | 71% | 73% | 58% | 93% | 30% |  |  |  | 
2 | O=C(O)CNCP(=O)(O)O [B-6, glyphosate-potassium] | 50% | 10% | 0% | 30% | 30% | 70% | 94% | 70% | 75% | 30% | 30% | 68% | 75% | 50% | 2% | 0% | 20% | 70% | 70% | 80% | 
3 | CC(C)N(C)S(=O)(=O)NC(=O)c1cc(-n2c(=O)cc(C(F)(F)F)n(C)c2=O)c(F)cc1Cl [C-1, saflufenacil] |  |  |  |  |  | 20% | 20% |  |  |  |  |  |  |  |  |  |  |  | 20% | 0% | % Herbicidal activity [10, 21]: 55%
4 | C#CCN1C(=O)C(F)(F)Oc2cc(F)c(-n3c(=O)n(C)c(=S)n(C)c3=O)cc21 [C-4, trifludimoxazin] |  |  |  |  |  |  |  | 20% |  |  |  |  |  |  |  |  |  | 20% |  |  | % Herbicidal activity [10, 21]: 45%
